Common to all, as to assay type: in vivo
The test system of test [1] is Beta vulgaris (BEAVA, sugarbeet). The test is described as follows: Test 2 glasshouse assay (IF50 formulation, X-77), post-emergence herbicidal activity. To be noted: 360 h, 15 DAA, visual score, read-out: Post-emergence herbicidal activity (percentage phytotoxicity) BEAVA; for plant injury at 30 g/ha: application rate 30 g/ha; for plant injury at 125 g/ha: application rate 125 g/ha. As for the experimental part: (§1) Seeds of a variety of monocotyledonous and dicotyledonous test plants are sown in standard soil in pots. The plants are cultivated for one day (for pre-emergence) or for about 12 days (for post-emergence) under controlled conditions in a glasshouse (warm climate species at 24/18° C., cool climate species at 20/16° C., both at day/night; 16 hours light; 65% humidity).
(§2) An “instant formulation”, known as the “IF50”, containing 50 g/liter (i.e. 5% w/v) of the “technical” (i.e. unformulated) active ingredient is prepared by dissolving the active ingredient in a mixture of organic solvents and emulsifier, details of which are provided in the Table below. This IF50 is then mixed with a small, variable amount of acetone to aid dissolution, before addition of a 0.2% v/v aqueous solution of the adjuvant X-77 (which is a mixture of alkyl aryl polyoxyethylene glycols and free fatty acids in isopropanol, CAS Registry number 11097-66-8), as the aqueous diluent, to form an aqueous spray solution which contains a predetermined concentration of the active ingredient (which varies depending on the application rate of the active ingredient to the plants) and 0.2% v/v of the adjuvant X-77. This aqueous spray solution is then sprayed onto the plants, after one day's cultivation (for pre-emergence), or after about 12 days' cultivation (range=10-13 days) (for post-emergence).
(§3) The test plants are then grown on, in a glasshouse (greenhouse) under controlled conditions (warm climate species at 24/18° C., cool climate species at 20/16° C., both at day/night; 16 hours light; 65% humidity) and are watered twice daily. 15 days after application of the test herbicide (15DAA) (for post-emergence), and 20 days after application of the test herbicide (20DAA) (for pre-emergence), the test plants are evaluated visually, and an assessed percentage phytotoxicity score is given for each herbicidal application on each plant species (with 100%=total damage to plant; 0%=no damage to plant).
(§4) Cool climate crop plants: Triticum aestivum (TRZAW, winter wheat), Brassica napus (BRSNN, rape, also called oilseed rape or rapeseed), Beta vulgaris (BEAVA, sugarbeet). Warm climate crop plants: Glycine max (GLXMA, soybean).

Test [2] relates to Glycine max (GLXMA, soybean). The test is described as above. The note with it: 360 h, 15 DAA, visual score, read-out: Post-emergence herbicidal activity (percentage phytotoxicity) GLXMA; for plant injury at 30 g/ha: application rate 30 g/ha; for plant injury at 125 g/ha: application rate 125 g/ha. The protocol:
as §1, §2, §3, §4

Test [3] deals with Triticum aestivum (TRZAW, winter wheat). The description is as above. The note with it: 360 h, 15 DAA, read-out: Post-emergence herbicidal activity (percentage phytotoxicity) TRZAW; for plant injury at 30 g/ha: application rate 30 g/ha; for plant injury at 30 g/ha / plant injury at 125 g/ha: visual score; for plant injury at 125 g/ha: application rate 125 g/ha. As for the experimental part:
as §1, §2, §3, §4

In test [4] the test system is Brassica napus (BRSNN, rape). The description is as above. The note with it: 360 h, 15 DAA, visual score, read-out: Post-emergence herbicidal activity (percentage phytotoxicity) BRSNN; for plant injury at 30 g/ha: application rate 30 g/ha; for plant injury at 125 g/ha: application rate 125 g/ha. The protocol:
as §1, §2, §3, §4

Test [5] relates to Alopecurus myosuroides (ALOMY). The experiment in a line: Test 1 glasshouse assay, pre-emergence herbicidal activity. The note with it: 312 h, visual evaluation after 13 days, read-out: Percentage phytotoxicity ALOMY. The method in brief:
(§5)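 Pots are sprayed pre-emergence, one day after sowing, with the technical active ingredient in an acetone/water mixture containing 0.5% Tween 20. After 13 days under controlled glasshouse conditions, damage is rated visually as percent phytotoxicity.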

The subject of test [6] is Amaranthus retroflexus (AMARE). The description is as above. The note with it: 312 h, visual evaluation after 13 days, read-out: Percentage phytotoxicity AMARE. The method in brief: as §5
The subject of test [7] is Echinochloa crus-galli (ECHCG). The test is described as above. To be noted: 312 h, visual evaluation after 13 days, read-out: Percentage phytotoxicity ECHCG. The method in brief: as §5
In test [8] the test system is Setaria faberi (SETFA). Described as above. The note with it: 312 h, visual evaluation after 13 days, read-out: Percentage phytotoxicity SETFA. The procedure, abridged: as §5
Test [9] deals with Amaranthus retroflexus (AMARE). The experiment in a line: Test 1 glasshouse assay, post-emergence herbicidal activity. The note with it: 312 h, post-emergence (Example 1B Table 1), after 13 days, read-out: Percentage phytotoxicity AMARE. The method in brief: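 Plants sprayed post-emergence after 8 days' growth with active ingredient in acetone/water (50:50) plus 0.5% Tween 20; glasshouse at 24/16° C day/night, 14 h light, 65% humidity. Visual percentage phytotoxicity scored 13 days later (100% = total damage, 0% = none).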

The subject of test [10] is Lolium perenne (LOLPE). The test is described as follows: Test 2 glasshouse assay (IF50 formulation, X-77), pre-emergence herbicidal activity. The note with it: 480 h, 20DAA, read-out: Percentage phytotoxicity LOLPE. As for the experimental part:
as §1, §2, §3
Cool climate (“cool season”) grassy monocotyledonous weeds: Alopecurus myosuroides (ALOMY), Avena fatua (AVEFA), Lolium perenne (LOLPE).

The structures appear in SMILES notation.

For the compound `C#CCC1CC(=O)C(c2c(C)cc(-c3ccc(F)cc3)cc2C)C1=O` (centres unmarked) [Compound A1, 2-[4-(4-fluorophenyl)-2,6-dimethyl-phenyl]-4-prop-2-ynylcyclopentane-1,3-dione], the plant injury at 30 g/ha turned out to be 70% in test [1], 0% in test [2], 80% in [3] and 70% in [4]. Moreover, the plant injury at 125 g/ha in test [1] turned out to be 70%; in test [2], 0%; in [3] it was 80%; in test [4] it was 70%. For the same compound, the pest or weed control at 250 g/ha in [5] was determined as 100%; in [6], 80%; in test [7], 100%; in test [8], 90%; in test [9], 70%. The pest or weed control at 62.5 g/ha in [9] amounted to 30%. Besides, the pest or weed control at 125 g/ha in [10] turned out to be 80%.

Consider `C#CCC1CC(OC(C)=O)=C(c2c(C)cc(-c3ccc(F)cc3)cc2C)C1=O` (centres unmarked) [Compound A45], for which the plant injury at 30 g/ha came to 70% in test [1], 0% in [2], 80% in test [3] and 50% in test [4]. For the same compound, the plant injury at 125 g/ha in [1] is 70%; in test [2], 10%; in test [3], 80%; in test [4] it was 80%. The pest or weed control at 250 g/ha is 100% in test [5]; 90% in test [6]; 100% in [7]; 60% in test [8]; 80% in test [9]. In addition, in test [9], the pest or weed control at 62.5 g/ha was 20%. In addition, in test [10], the pest or weed control at 125 g/ha was found to be 90%.

`C#CCC1C(=O)C(c2c(C)cc(C)cc2C)C(=O)C1CC#C` (centres unmarked) [Compound A42]: the plant injury at 125 g/ha was determined as 0% in test [1], 10% in test [2], 0% in test [3] and 20% in [4]. The plant injury at 500 g/ha in test [1] (application rate 500 g/ha) amounted to 30%; in test [2] (application rate 500 g/ha) it was 10%; in test [3] (application rate 500 g/ha, visual score 100%=total damage, 0%=no damage), 10%; in test [4] (application rate 500 g/ha), 80%. In addition, the values for the pest or weed control at 250 g/ha in test [5] and in [7] were 100% and 80%, respectively. Moreover, in test [10] (500 g/ha), the pest or weed control at 500 g/ha stood at 100%.
